Assay results from ChEMBL document CHEMBL1134953, “Two selective novel triterpene glycosides from sea cucumber, Telenata Ananas: inhibitors of chemokine receptor-5” (Bioorg Med Chem Lett, 2002).

Target: C-C chemokine receptor type 5 (Homo sapiens, UniProt P51681)
Assay: Inhibitory activity against human CCR5 chemokine receptor (CCR5) expressed in CHO cells
Type: cell-based

Chain of C-C chemokine receptor type 5 (P51681 whole entry): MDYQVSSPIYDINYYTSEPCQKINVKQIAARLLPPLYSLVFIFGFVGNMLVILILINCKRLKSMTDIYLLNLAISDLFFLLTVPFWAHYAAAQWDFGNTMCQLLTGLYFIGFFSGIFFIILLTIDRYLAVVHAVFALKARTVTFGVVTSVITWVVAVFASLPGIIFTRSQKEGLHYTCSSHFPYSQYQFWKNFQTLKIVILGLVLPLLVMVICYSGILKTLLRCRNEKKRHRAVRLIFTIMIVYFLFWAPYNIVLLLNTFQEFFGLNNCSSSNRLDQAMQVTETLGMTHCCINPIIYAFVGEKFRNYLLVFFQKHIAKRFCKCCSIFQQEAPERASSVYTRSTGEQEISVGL

Structure (SMILES) | Ki [µM]
COC1[C@@H](O)C(OC2[C@@H](O)[C@H](O[C@H]3[C@H](O)[C@@H](O)[C@H](O[C@H]4[C@H](O[C@H]5CC[C@]6(C)C7=C[C@H](O)C89C(=O)O[C@@](C)(CCCC(C)C)C8CC[C@@]9(C)C7CCC6C5(C)C)OC[C@@H](O[C@@H]5O[C@H](CO)[C@@H](O)[C@H](OC6O[C@H](CO)[C@@H](O)[C@H](OC)[C@H]6O)[C@H]5O)[C@@H]4O)O[C@@H]3C)O[C@H](CO)[C@H]2O)O[C@H](CO)[C@H]1O (some centres not stated) | 5.1
C[C@H]1O[C@@H](O[C@H]2[C@H](O[C@H]3CC[C@]4(C)C5=C[C@H](O)C67C(=O)O[C@@](C)(C8CCC(C)(C)O8)[C@@]6(O)CC[C@@]7(C)C5CCC4C3(C)C)OC[C@@H](O[C@@H]3O[C@H](CO)[C@@H](O)[C@H](O)[C@H]3O)[C@@H]2O)[C@H](O)[C@@H](O)[C@@H]1O (some centres not stated) | 30
